From PubChem BioAssay (NCI)
Values joined by “and” are separate entries in the source; they are usually repeats but may differ in a detail not shown here. Equal values may be shown once.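 Cultured in 96-well plates, cells were exposed to test compound for 48 hours across five concentrations. At the GI50, growth is halved. Definition used: TGI = concentration required for complete inhibition of growth.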

Tests used:
Assay in all cases: inhibition of tumour cell growth, NCI panel, 48 h
CAKI-1 renal = tested on: CAKI-1 renal
SR leukemia = tested on: SR leukemia
UACC-62 melanoma = tested on: UACC-62 melanoma
OVCAR-8 ovarian = tested on: OVCAR-8 ovarian
HOP-62 NSCLC = tested on: HOP-62 NSCLC
HCT-116 colon = tested on: HCT-116 colon
CCRF-CEM leukemia = tested on: CCRF-CEM leukemia
RPMI-8226 leukemia = tested on: RPMI-8226 leukemia
SN12C renal = tested on: SN12C renal
SK-OV-3 ovarian = tested on: SK-OV-3 ovarian

SMILES	GI50 (CAKI-1 renal) [µM]	TGI (CAKI-1 renal)	GI50 (SR leukemia) [nM]	TGI (SR leukemia) [µM]	GI50 (UACC-62 melanoma) [nM]	TGI (UACC-62 melanoma)	GI50 (OVCAR-8 ovarian) [nM]	TGI (OVCAR-8 ovarian)	GI50 (HOP-62 NSCLC) [µM]	TGI (HOP-62 NSCLC)	GI50 (HCT-116 colon) [µM]	TGI (HCT-116 colon)	GI50 (CCRF-CEM leukemia) [µM]	TGI (CCRF-CEM leukemia)	GI50 (RPMI-8226 leukemia) [nM]	TGI (RPMI-8226 leukemia)	GI50 (SN12C renal) [µM]	TGI (SN12C renal)	GI50 (SK-OV-3 ovarian) [µM]	TGI (SK-OV-3 ovarian)
C=C(C)C1/C=C(/C(C)C)CC[C@]2(C)O[C@@H]2CC[C@H](C)CC1=O (some centres not stated)	35.3	> 100 µM	19200	58.5	80200	> 100 µM	58300	> 100 µM	76	> 100 µM	17.7	42.2 µM	18.5	37.3 µM	15500	34.4 µM	> 100	> 100 µM	> 100	> 100 µM
Cn1c(O)c(C(=O)Nc2ccc([N+](=O)[O-])cc2)c(=O)n(C)c1=S	–	10.6 µM	–	> 100	–	3.64 µM	–	14.9 µM	–	4.05 µM	–	5.63 µM	–	> 100 µM	–	> 100 µM	–	> 70.7 µM	–	> 81.1 µM
COc1ccc(/C=C(\C#N)c2cc3ccccc3n2C)cc1	0.437	> 100 µM	176	–	504	> 100 µM	560	> 100 µM	0.497	> 100 µM	0.426	> 100 µM	0.338	> 100 µM	388	> 100 µM	0.58	> 100 µM	0.787	> 100 µM
COc1ccc(/C=C2\N=C3SC=C(N)N3C2=O)cc1	1.32	7.01 µM	1020	4.85	1070	2.76 µM	1440	10.4 µM	2.23	15.7 µM	1.11	2.61 µM	0.4	4.33 µM	492	2.99 µM	1.57	7.35 µM	2.16	11.7 µM
CCNCC(O)c1ccc(N)c([N+](=O)[O-])c1 (configuration not stated)	–	> 100 µM	–	> 100	–	> 100 µM	–	> 100 µM	–	> 100 µM	–	> 100 µM	–	> 100 µM	–	> 100 µM	–	> 100 µM	–	> 100 µM
O=c1nc2cc(-c3ccccc3)[nH]c2nn1-c1c(Cl)cc(Cl)cc1Cl	–	68.5 µM	–	62.5	–	35.6 µM	–	95.8 µM	–	56.5 µM	–	40.1 µM	–	76.2 µM	–	61.1 µM	–	83.7 µM	–	92.4 µM
C[C@@H]1CC[C@@]2(OC1)O[C@H]1C[C@H]3[C@@H]4CC=C5C[C@@H](O[C@@H]6O[C@H](CO)[C@@H](O[C@@H]7O[C@@H](CO)[C@H](O)[C@H]7O)[C@H](O)[C@H]6O[C@@H]6O[C@@H](C)[C@H](O)[C@@H](O)[C@H]6O)CC[C@]5(C)[C@H]4CC[C@]3(C)[C@H]1[C@@H]2C	–	2.05 µM	565	2.39	909	2.11 µM	657	1.96 µM	1.09	2.4 µM	–	2.09 µM	1.1	2.6 µM	1090	2.4 µM	0.481	1.65 µM	1.62	3.04 µM
O=Nc1c(O)ccc2ccccc12	3.1	12.1 µM	2160	5.86	1860	3.83 µM	2280	7.04 µM	12.9	26.1 µM	2.25	5.87 µM	3.16	11.4 µM	2640	7.21 µM	1.75	3.4 µM	15.3	28.9 µM
COc1ccc(C2S/C(=C\c3ccc(OC)cc3OC)C(=O)N2NC(=O)Cc2ccccc2)cc1 (configuration not stated)	–	> 100 µM	–	> 100	–	> 100 µM	–	> 100 µM	–	> 100 µM	–	> 100 µM	–	> 100 µM	–	> 100 µM	–	> 100 µM	–	> 100 µM
CCSC1=CC(=O)c2ccccc2C1=O	1.96	5.5 µM	2570	6.8	4790	17.2 µM	1750	3.8 µM	15.3	28.7 µM	1.48	2.84 µM	0.374	–	1490	5.65 µM	14.5	28.6 µM	18.1	32 µM
CC(=O)N1CC(F)(F)c2c(Sc3ncc(N4CCC5(CC4)COC[C@H]5N)nc3N)cccc21	3.68	30 µM	8160	35.8	18000	36.1 µM	35000	> 100 µM	3.69	75.1 µM	17.7	46.6 µM	18.7	68.5 µM	12400	42.7 µM	25.8	> 100 µM	3.75	> 100 µM
COc1ccc(/C=C\c2cc(OC)c(OC)c(OC)c2)c(NS(=O)(=O)c2ccc(C)cc2)c1O	0.0938	> 100 µM	31	> 51.5	42.8	> 100 µM	49.8	> 100 µM	1.29	> 100 µM	0.0357	> 100 µM	0.0407	> 100 µM	50.2	23.9 µM	0.0736	> 76.2 µM	0.685	> 100 µM
COC(=O)CCC1=C(C)c2cc3[n-]c(cc4nc(cc5[n-]c(cc1n2)c(CCC(=O)OC)c5C)C=C4C)cc3C.[Cd+2]	12.4	38.1 µM	3160	8.91	2000	5.19 µM	9950	75.4 µM	25.4	76.2 µM	8.42	25.3 µM	3.34	> 56.4 µM	4230	> 29.5 µM	19.1	58 µM	7.4	27.7 µM
C=C(C)[C@H]1CC/C(C)=C/CCC(C)C(=O)CC/C(CO)=C\[C@@H]1O (some centres not stated)	65.9	> 100 µM	> 100000	> 100	67600	> 100 µM	> 100000	> 100 µM	> 100	> 100 µM	97.4	> 100 µM	44.6	> 100 µM	> 100000	> 100 µM	> 100	> 100 µM	> 100	> 100 µM
COc1ccc(C(=O)C=C2NCCN2)cc1	–	> 100 µM	–	> 100	–	> 100 µM	–	> 100 µM	–	> 100 µM	–	> 100 µM	–	> 100 µM	–	> 100 µM	–	> 100 µM	–	> 100 µM
CC[C@H](C)[C@H](NC(=O)C12C3C4C1C1C2C3C41NC(C)=O)C(=O)N(C)[C@H](C[C@@H](OC(C)=O)c1nc(C(=O)N[C@@H](Cc2ccccc2)C[C@H](C)C(=O)OC)cs1)C(C)C (some centres not stated)	> 10.8	> 14.3 µM	33.1	> 14.3	112	> 14.3 µM	614	> 14.3 µM	0.618	> 14.3 µM	0.354	> 14.3 µM	0.361	> 14.3 µM	73.5	> 6.78 µM	0.799	> 14.3 µM	0.703	> 14.3 µM
O=[N+]([O-])c1ccc2c(N=Nc3c(O)ccc4ccccc34)c(O)cc(S(=O)(=O)O)c2c1	–	50 µM	–	> 100	34200	50 µM and > 100 µM	31300	50 µM and > 100 µM	17.1	50 µM and > 100 µM	25.6	50 µM and > 100 µM	19.8	50 µM and > 100 µM	67100	50 µM and > 100 µM	59	50 µM and > 100 µM	–	50 µM
CC(=O)Oc1cccc2c1C(=O)c1c(OC(C)=O)cc(C)cc1C2=O	–	> 100 µM	–	> 100	–	> 100 µM	–	> 100 µM	–	> 100 µM	–	> 100 µM	–	> 100 µM	–	43.8 µM	–	> 100 µM	–	> 100 µM
COc1ccc([C@H]2O[C@@H](CO)C[C@]2(O)c2ccc(OC)cc2)cc1	> 100	> 100 µM	49800	> 100	> 100000	> 100 µM	> 100000	> 100 µM	> 100	> 100 µM	> 100	> 100 µM	> 100	> 100 µM	> 100000	> 100 µM	> 100	> 100 µM	> 100	> 100 µM
CN(C)c1ccc(/C=C/c2ccnc3ccccc23)cc1	9.68	> 100 µM and 45 µM	–	> 100	3110	> 100 µM and 29.5 µM	5680	> 100 µM	3.34	> 100 µM and 16.6 µM	3.09	> 100 µM and 13.8 µM	4.52	> 100 µM	2770	> 100 µM and 12.9 µM	3.95	> 100 µM	4.42	> 100 µM and 48.7 µM
